Earlier results in patent US20130303466A1, “Chemosensory Receptor Ligand-Based Therapies” (ELCELYX THERAPEUTICS, INC., priority 2010, published 2013).

Target: T1, sweet receptor (Homo sapiens, UniProt Q7RTX0+Q8TE23)
T1 sequence (Q8TE23 20-839): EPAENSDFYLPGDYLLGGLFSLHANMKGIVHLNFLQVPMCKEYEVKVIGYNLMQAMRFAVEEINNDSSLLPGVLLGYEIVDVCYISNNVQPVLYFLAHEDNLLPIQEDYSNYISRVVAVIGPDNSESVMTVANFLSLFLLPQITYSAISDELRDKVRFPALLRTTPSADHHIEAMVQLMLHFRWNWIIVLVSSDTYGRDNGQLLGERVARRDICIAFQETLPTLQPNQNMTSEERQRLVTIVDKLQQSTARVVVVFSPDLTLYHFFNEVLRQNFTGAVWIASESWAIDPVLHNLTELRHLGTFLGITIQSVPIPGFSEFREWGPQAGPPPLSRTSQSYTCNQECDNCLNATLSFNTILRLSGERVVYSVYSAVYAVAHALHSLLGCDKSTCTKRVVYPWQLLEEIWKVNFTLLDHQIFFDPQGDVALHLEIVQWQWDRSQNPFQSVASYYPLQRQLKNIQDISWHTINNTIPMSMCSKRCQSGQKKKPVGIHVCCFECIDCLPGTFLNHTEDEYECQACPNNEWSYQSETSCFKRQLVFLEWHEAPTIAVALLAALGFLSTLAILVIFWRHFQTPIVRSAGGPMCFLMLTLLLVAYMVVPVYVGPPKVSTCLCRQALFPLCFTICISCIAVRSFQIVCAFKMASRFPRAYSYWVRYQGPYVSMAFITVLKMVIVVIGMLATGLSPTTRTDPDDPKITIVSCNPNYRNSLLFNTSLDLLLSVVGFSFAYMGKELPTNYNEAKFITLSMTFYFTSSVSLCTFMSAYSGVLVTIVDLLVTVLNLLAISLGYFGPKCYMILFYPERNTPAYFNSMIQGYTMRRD
T1 sequence (Q7RTX0 21-852): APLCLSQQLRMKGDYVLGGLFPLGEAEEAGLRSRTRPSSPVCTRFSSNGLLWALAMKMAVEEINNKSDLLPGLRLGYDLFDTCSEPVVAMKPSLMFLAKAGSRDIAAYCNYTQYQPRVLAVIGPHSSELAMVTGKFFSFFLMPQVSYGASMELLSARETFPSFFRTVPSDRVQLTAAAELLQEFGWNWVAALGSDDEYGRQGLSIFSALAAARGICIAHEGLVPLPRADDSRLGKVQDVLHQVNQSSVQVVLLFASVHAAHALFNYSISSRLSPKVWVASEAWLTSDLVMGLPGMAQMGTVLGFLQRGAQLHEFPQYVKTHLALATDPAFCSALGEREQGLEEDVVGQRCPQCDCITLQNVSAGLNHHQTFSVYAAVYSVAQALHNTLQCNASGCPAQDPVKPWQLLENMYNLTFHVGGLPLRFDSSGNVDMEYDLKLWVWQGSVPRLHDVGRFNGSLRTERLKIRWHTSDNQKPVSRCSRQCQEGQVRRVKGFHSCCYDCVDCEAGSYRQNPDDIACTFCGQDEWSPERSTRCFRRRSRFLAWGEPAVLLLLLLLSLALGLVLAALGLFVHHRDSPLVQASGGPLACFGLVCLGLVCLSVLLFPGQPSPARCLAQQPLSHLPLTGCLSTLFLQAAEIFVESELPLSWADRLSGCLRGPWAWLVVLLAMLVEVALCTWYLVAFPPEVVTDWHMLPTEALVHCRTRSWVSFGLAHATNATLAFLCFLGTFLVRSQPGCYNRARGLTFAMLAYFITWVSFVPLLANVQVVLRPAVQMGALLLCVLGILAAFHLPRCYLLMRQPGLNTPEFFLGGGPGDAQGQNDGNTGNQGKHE
Conditions: relative sweetness on a weight comparison basis to sucrose (= 1.0); ranges: relative sweetness varied with the concentration of sucrose; adapted from Kim et al., 2002

Compound | Sweetness/potency
CC1=CC[C@@H]([C@@H](C)[C@H]2CC[C@@]3(C)[C@@H]4CC[C@H]5[C@](C)(C(=O)O)[C@@H](O[C@@H]6O[C@H](CO)[C@@H](O)[C@H](O)[C@H]6O)CC[C@@]56C[C@@]46CC[C@]23C)OC1=O [Abrusoside A (42), Abrusoside A] | 30
C/C(=C\CC[C@@H](C)[C@H]1CC[C@@]2(C)[C@@H]3CC=C4[C@@H](CC[C@H](O[C@@H]5O[C@H](CO)[C@@H](O)[C@H](O)[C@H]5O)C4(C)C)[C@]3(C)[C@H](O)C[C@]12C)CO[C@@H]1O[C@H](CO[C@@H]2O[C@H](CO)[C@@H](O)[C@H](O)[C@H]2O)[C@@H](O)[C@H](O)[C@H]1O [Carnosifloside VI (36), Carnosifloside VI] | 77
C=C1C[C@@]23CC[C@H]4[C@@](C)(CCC[C@@]4(C)C(=O)O[C@@H]4O[C@H](CO)[C@@H](O)[C@H](O)[C@H]4O)[C@@H]2CC[C@]1(O[C@@H]1O[C@H](CO)[C@@H](O)[C@H](O)[C@H]1O[C@@H]1O[C@H](CO)[C@@H](O)[C@H](O)[C@H]1O)C3 [Stevioside (5), Stevioside] | 210
CC1(C(=O)O)C=C2C3CCC4C5(CO)CCC(OC6OC(C(=O)O)C(O)C(O)C6OC6OC(C(=O)O)C(O)C(O)C6O)C(C)(C)C5CCC4(C)C3(C)CCC2(C)CC1 (stereo not shown) [Periandrin III (59), Periandrin III] | 92
COc1ccc([C@H]2Cc3cccc(O)c3C(=O)O2)cc1O [Phyllodulcin (3), Phyllodulcin] | 400
Oc1cc2c(cc1O)[C@@H]1c3ccc(O)c(O)c3OC[C@]1(O)C2 [Hematoxylin (99), Hematoxylin] | 120
Periandrin IV [Periandrin IV (60)] | 85
Rebaudioside B [Rebaudioside B (16)] | 150
Scandenoside R6 [Scandenoside R6 (39)] | 54
CC1(C(=O)O)CCC2(C)CCC3(C)C(=CC(=O)C4C5(C)CCC(OC6OC(C(=O)O)C(O)C(O)C6OC6OCC(O)(CO)C6O)C(C)(C)C5CCC43C)C2C1 (stereo not shown) [Apioglycyrrhizin (55), Apioglycyrrhizin] | 300
Oc1ccc([C@H]2Oc3c(c(O)cc4c3[C@H]3c5c(O)cc(O)cc5O[C@@](c5ccc(O)cc5)(O4)[C@@H]3O)[C@H](c3c(O)cc(O)c4c3O[C@H](c3ccc(O)cc3)[C@@H](O)C4)[C@H]2O)cc1 [Selligueain A (96), Selligueain A] | 35
CC1(C)C[C@H]2C3=CC[C@@H]4[C@@]5(C)CC[C@H](O[C@@H]6O[C@H](CO[C@@H]7OC[C@H](O)[C@H](O)[C@H]7O[C@@H]7OC[C@@H](O)[C@H](O)[C@H]7O)[C@@H](O)[C@H](O)[C@H]6O)C(C)(C)[C@@H]5CC[C@@]4(C)[C@]3(C)C[C@@H](O)[C@@]23C[C@@H]1OC3=O [Albiziasaponin A (50), Albiziasaponin A] | 5
Rebaudioside C [Rebaudioside C (17)] | 30
Brazzein: sweet protein from Pentadiplandra brazzeana Baillon (QDKCKKVYENYPVSKCQLANQCNYDCKLDKHARSGECFYDEKRNLQCICDYCEY; UniProt P56552 1-54, looked up) | 2,000
C[C@@H]1O[C@@H](O[C@H]2O[C@@H]([C@@H](C)C3CC[C@@H]4[C@H]5CC(=O)[C@@H]6C[C@H](O[C@@H]7O[C@H](CO)[C@@H](O)[C@H](O)[C@H]7O[C@@H]7O[C@@H](C)[C@H](O)[C@@H](O)[C@H]7O)CC[C@]6(C)[C@@H]5CC[C@]34C)CC[C@@H]2C)[C@H](O)[C@H](O)[C@H]1O (stereo partly shown) [Osladin (64), Osladin] | 500
Polypodoside A [Polypodoside A (65)] | 600
COC(=O)[C@H]1O[C@@H](O[C@H]2[C@H](O[C@H]3CC[C@]45C[C@]46CC[C@]4(C)[C@@H]([C@H](C)[C@@H]7CC=C(C)C(=O)O7)CC[C@@]4(C)[C@@H]6CC[C@H]5[C@]3(C)C(=O)O)O[C@H](CO)[C@@H](O)[C@@H]2O)[C@H](O)[C@@H](O)[C@@H]1O [Abrusoside B (43), Abrusoside B] | 100
CC1(C)[C@@H](O[C@@H]2O[C@H](C(=O)O)[C@@H](O)[C@H](O)[C@H]2O[C@@H]2O[C@H](C(=O)O)[C@@H](O)[C@H](O)[C@H]2O)CC[C@]2(C=O)[C@H]3CC[C@@H]4C5=C[C@@](C)(C(=O)O)CC[C@]5(C)CC[C@@]4(C)[C@]3(C)CC[C@@H]12 [Periandrin I (57), Periandrin I] | 90
C/C(=C\CO)CCC1=C(C=O)CC(OC2OCC(O)C(O)C2O)C2C(C)(CO)CCCC12C (stereo not shown) [Gaudichaudioside A (32), Gaudichaudioside A] | 55

Compound | Sweetness/potency
Thaumatin | 1,600
C=C(C)C1CCC2(C)C(CC(OC3OCC(O)C(O)C3O)C3C(C(C)(O)C/C=C/C(C)(C)O)CCC32C)C1(C)CCC(=O)O (stereo not shown) [Pterocaryoside B (63), Pterocaryoside B] | 100
COc1c(O)cc2c(c1O)C(=O)[C@H](OC(C)=O)[C@@H](c1ccc(O)c(O)c1)O2 [(2R,3R)-2,3-Dihydro-5,7,3′,4′-tetrahydroxy-6-methoxy-3-O-acetylflavonol] | 25
Curculin | 550
Pterocaryoside A [Pterocaryoside A (62)] | 50
Carnosifloside V [Carnosifloside V (35)] | 51
CC[C@@H](C)C(=O)O[C@@H](C)[C@]1(O)CC[C@]2(O)[C@@H]3CC[C@H]4C[C@@H](O[C@@H]5C[C@H](O)[C@H](O[C@H]6C[C@H](OC)[C@H](O[C@H]7C[C@@H](OC)[C@H](O[C@H]8C[C@@H](OC)[C@H](O[C@@H]9O[C@H](C)[C@@H](O[C@@H]%10O[C@H](CO)[C@@H](O)[C@H](O)[C@H]%10O)[C@H](OC)[C@H]9O)[C@@H](C)O8)[C@@H](C)O7)[C@@H](C)O6)[C@@H](C)O5)CC[C@]4(C)[C@H]3C[C@@H](OC(C)=O)[C@]12C [Telosmoside A15 (74), Telosmoside A15] | 1000
Baiyunoside [Baiyunoside (30)] | 500
C/C=C/c1ccc(OC)cc1 [trans-Anethole(78), trans-Anethole] | 13
CC(C)=CCC[C@](C)(O)[C@@H]1CCC(C)=CC1=O [(+)-Hernandulcin (11), (+)-Hernandulcin] | 1,500
O=C/C=C/c1ccccc1 [Trans-Cinnamaldehyde (79), Trans-Cinnamaldehyde] | 50
Monellin | 3,000
CC1(C(=O)O)C=C2C3CCC4C5(C=O)CCC(OC6OC(C(=O)O)C(O)C(O)C6OC6OCC(O)C(O)C6O)C(C)(C)C5CCC4(C)C3(C)CCC2(C)CC1 (stereo not shown) [Periandrin V (61), Periandrin V] | 220
CC1=CC[C@@H]([C@@H](C)[C@H]2CC[C@@]3(C)[C@@H]4CC[C@H]5[C@](C)(C(=O)O)[C@@H](O[C@@H]6O[C@H](CO)[C@@H](O)[C@H](O)[C@H]6O[C@@H]6O[C@H](C(=O)O)[C@@H](O)[C@H](O)[C@H]6O)CC[C@@]56C[C@@]46CC[C@]23C)OC1=O [Abrusoside D (45), Abrusoside D] | 75
Pentadin | 500
CC(=O)O[C@H]1C(=O)c2c(O)cc(O)cc2O[C@@H]1c1ccc(O)c(O)c1 [(2R,3R)-Dihydroquercetin 3-O-acetate] | 80
Cyclocaryoside I [Cyclocaryoside I (48)] | 250
COc1c(O)cc2c(c1O)C(=O)[C@H](OC(C)=O)[C@@H](c1ccc(O)cc1)O2 [(2R,3R)-2,3-Dihydro-5,7,4′-trihydroxy-6-methoxy-3-O-acetylflavonol] | 20
